The record followed here is US7419969B2 (Bristol-Myers Squibb Company, priority 2004, dated 2008).

Structures are written as SMILES.

Usually IC50 stands for the concentration at which inhibition is half-maximal.

In the assay the target is T1, HIV-integrase (Human immunodeficiency virus type 1 group M subtype B, UniProt P04585).
T1 construct: Recombinant integrase (0.26 ng) was incubated with the beads
Put plainly: in-vitro activity against HIV-integrase (HIV Integrase Inhibition, SPA bead assay). As to conditions: Table 1; recombinant integrase, activity class. In kind it is biochemical. As to the method:
To evaluate in-vitro activity against HIV-integrase, 5 pmole of biotin labeled substrate DNA was bound to 100 μg of Streptavidin coated PVT SPA beads (Amersham Pharmacia Biotech). Recombinant integrase (0.26 ng) was incubated with the beads for 90 min at 37° C. Unbound enzyme was removed by washing the complex followed by addition of inhibitors and […] of P33 labeled target DNA. The reaction was stopped by adding EDTA to a final concentration of 10 mM. Samples were counted in TopCountNXT (Packard) and the CPM was used as a measure of integration. The reaction condition was as described in Engelman, A. and Craigie, R. J. Vitrol. 1996, 69, 5908. The sequences of substrate and target DNA were described in Nucleic Acid Research 1994, 22, 1121.
`O=C(NCc1ccc(F)cc1N1CCCCS1(=O)=O)c1nc2n(c(=O)c1O)CCOC21CCC1` [Example 55, N-[[4-fluoro-2-(tetrahydro-1,1-dioxido-2H-1,2-thiazin-2-yl)phenyl]methyl]-6′,7′-dihydro-3′-hydroxy-4′-oxo-spiro[cyclobutane-1,9′(4′H)-pyrimido[2,1-c][1,4]oxazine]-2′-carboxamide]: the IC50 was in the range of 1 to 10 nM.

`O=C(NCc1ccccc1N1CCCCS1(=O)=O)c1nc2n(c(=O)c1O)CCOC21CCC1` [Example 56, N-[[2-(tetrahydro-1,1-dioxido-2H-1,2-thiazin-2-yl)phenyl]methyl]-6′,7′-dihydro-3′-hydroxy-4′-oxo-spiro[cyclobutane-1,9′(4′H)-pyrimido[2,1-c][1,4]oxazine]-2′-carboxamide]: the IC50 lay in the range of 10 to 100 nM.

In the case of `Cc1ncnn1-c1cc(F)ccc1CNC(=O)c1nc2n(c(=O)c1O)CCOC21CCC1` [Example 57, N-[[4-fluoro-2-(5-methyl-1H-1,2,4-triazol-1-yl)phenyl]methyl]-6′,7′-dihydro-3′-hydroxy-4′-oxo-spiro[cyclobutane-1,9′(4′H)-pyrimido[2,1-c][1,4]oxazine]-2′-carboxamide], the IC50 lay in the range of 1 to 10 nM.

In the case of `CS(=O)(=O)c1cc(F)ccc1CNC(=O)c1nc2n(c(=O)c1O)CCCOC21CCC1` [Example 58, N-[[4-fluoro-2-(methylsulfonyl)phenyl]methyl]-7′,8′-dihydro-3′-hydroxy-4′-oxo-spiro[cyclobutane-1,10′(4′H)-[6H]pyrimido[2,1-c][1,4]oxazepine]-2′-carboxamide], the IC50 fell in the range of 10 to 100 nM.

With `O=C(NCc1ccc(F)cc1)c1nc2n(c(=O)c1O)CCCOC21CCC1` [Example 59, N-[(4-fluorophenyl)methyl]-7′,8′-dihydro-3′-hydroxy-4′-oxo-spiro[cyclobutane-1,1 0′(4′H)-[6H]pyrimido[2,1-c][1,4]oxazepine]-2′-carboxamide], the IC50 lay in the range of 1 to 10 nM.

Turning to `O=C(NCc1ccc(F)cc1-n1cncn1)c1nc2n(c(=O)c1O)CCCOC21CCC1` [Example 60, N-[[4-fluoro-2-(1 H-1,2,4-triazol-1-yl)phenyl]methyl]-7′,8′-dihydro-3′-hydroxy-4′-oxo-spiro[cyclobutane-1,10′(4′H)-[6H]pyrimido[2,1-c][1,4]oxazepine]-2′-carboxamide], the IC50 was in the range of 1 to 10 nM.

For `CN(C)S(=O)(=O)c1cc(F)ccc1CNC(=O)c1nc2n(c(=O)c1O)CCCOC21CCC1` [Example 61], the IC50 was in the range of 10 to 100 nM.

In the case of `O=C(NCc1ccccc1)c1nc2n(c(=O)c1O)CCCC21CCC1` [Example 62, N-(phenylmethyl)-7′,8′-dihydro-3′-hydroxy-4′-oxo-spiro[cyclobutane-1,9′(6′H)-[4H]pyrido[1,2-α]pyrimidine]-2′-carboxamide], the IC50 was in the range of 1 to 10 nM.

Take `Cc1ccc(CNC(=O)c2nc3n(c(=O)c2O)CCCC32CCC2)cc1` [Example 63, N-[(4-methylphenyl)methyl]-7′,8′-dihydro-3′-hydroxy-4′-oxo-spiro[cyclobutane-1,9′(6′H)-[4H]pyrido[1,2-α]pyrimidine]-2′-carboxamide]: the IC50 lay in the range of 10 to 100 nM.

Consider `COc1ccc(CNC(=O)c2nc3n(c(=O)c2O)CCCC32CCC2)cc1` [Example 64, N-[(4-methoxyphenyl)methyl]-7′,8′-dihydro-3′-hydroxy-4′-oxo-spiro[cyclobutane-1,9′(6H)^1-[4H]pyrido[1,2-α]pyrimidine]-2′-carboxamide], for which the IC50 was in the range of 10 to 100 nM.

For `O=C(NCc1ccc(Cl)cc1)c1nc2n(c(=O)c1O)CCCC21CCC1` [Example 65, N-[(4-chlorophenyl)methyl]-7′,8′-dihydro-3′-hydroxy-4′-oxo-spiro[cyclobutane-1,9′(6′H)-[4H]pyrido[1,2-α]pyrimidine]-2′-carboxamide], the IC50 is 1 to 10 nM.

Consider `O=C(NCc1ccc(F)cc1)c1nc2n(c(=O)c1O)CCCC21CCC1` [Example 66, N-[(4-fluorophenyl)methyl]-7′,8′-dihydro-3′-hydroxy-4′-oxo-spiro[cyclobutane-1,9′(6′H)-[4H]pyrido[1,2-α]pyrimidine]-2′-carboxamide], for which the IC50 was in the range of 1 to 10 nM.

For `O=C(NCc1cccc(F)c1)c1nc2n(c(=O)c1O)CCCC21CCC1` [Example 67], the IC50 was in the range of 1 to 10 nM.

With `O=C(NCc1ccccc1F)c1nc2n(c(=O)c1O)CCCC21CCC1` [Example 68, N-[(2-fluorophenyl)methyl]-7′,8′-dihydro-3′-hydroxy-4′-oxo-spiro[cyclobutane-1,9′(6′H)-[4H]pyrido[1,2-α]pyrimidine]-2′-carboxamide], the IC50 is 10 to 100 nM.

On to `Cc1ccc(CNC(=O)c2nc3n(c(=O)c2O)CCCC32CCC2)cc1C` [Example 69, N-[(3,4-dimethylphenyl)methyl]-7′,8′-dihydro-3′-hydroxy-4′-oxo-spiro[cyclobutane-1,9′(6′H)-[4H]pyrido[1,2-α]pyrimidine]-2′-carboxamide], for which the IC50 lay in the range of 1 to 10 nM.

As to `O=C(NCc1ccc(Cl)c(Cl)c1)c1nc2n(c(=O)c1O)CCCC21CCC1` [Example 70, N-[(3,4-dichlorophenyl)methyl]-7′,8′-dihydro-3′-hydroxy-4′-oxo-spiro[cyclobutane-1,9′(6′H)-[4H]pyrido[1,2-α]pyrimidine]-2′-carboxamide], the IC50 is 1 to 10 nM.

For `COc1ccc(CNC(=O)c2nc3n(c(=O)c2O)CCCC32CCC2)c(OC)c1` [Example 71, N-[(2,4-dimethoxyphenyl)methyl]-7′,8′-dihydro-3′-hydroxy-4′-oxo-spiro[cyclobutane-1,9′(6′H)-[4H]pyrido[1,2-α]pyrimidine]-2′-carboxamide], the IC50 was in the range of 10 to 100 nM.

Regarding `Cc1cc(CNC(=O)c2nc3n(c(=O)c2O)CCCC32CCC2)ccc1F` [Example 72, N-[(4-fluoro-3-methylphenyl)methyl]-7′,8′-dihydro-3′-hydroxy-4′-oxo-spiro[cyclobutane-1,9′(6′H)-[4H]pyrido[1,2-α]pyrimidine]-2′-carboxamide], the IC50 was in the range of 1 to 10 nM.

For the compound `Cc1ccc(CNC(=O)c2nc3n(c(=O)c2O)CCCC32CCC2)cc1F` [Example 73, N-[(3-fluoro-4-methylphenyl)methyl]-7′,8′-dihydro-3′-hydroxy-4′-oxo-spiro[cyclobutane-1,9′(6′H)-[4H]pyrido[1,2-α]pyrimidine]-2′-carboxamide], the IC50 lay in the range of 1 to 10 nM.

As to `CC(NC(=O)c1nc2n(c(=O)c1O)CCCC21CCC1)c1ccc(F)cc1` (stereo not drawn) [Example 74, N-[1-(4-fluorophenyl)ethyl]-7′,8′-dihydro-3′-hydroxy-4′-oxo-spiro[cyclobutane-1,9′(6′H)-[4H]pyrido[1,2-α]pyrimidine]-2′-carboxamide], the 50% inhibitory concentration (IC50) fell in the range of 10 to 100 nM.

Take `O=C(NCc1cc(F)ccc1F)c1nc2n(c(=O)c1O)CCCC21CCC1` [Example 75, N-[(2,5-difluorophenyl)methyl]-7′,8′-dihydro-3′-hydroxy-4′-oxo-spiro[cyclobutane-1,9′(6′H)-[4H]pyrido[1,2-α]pyrimidine]-2′-carboxamide]: the IC50 is 10 to 100 nM.

Take `O=C(NCc1cc(Cl)ccc1Cl)c1nc2n(c(=O)c1O)CCCC21CCC1` [Example 76, N-[(2,5-dichlorophenyl)methyl]-7′,8′-dihydro-3′-hydroxy-4′-oxo-spiro[cyclobutane-1,9′(6′H)-[4H]pyrido[1,2-α]pyrimidine]-2′-carboxamide]: the IC50 was 1 to 10 nM.

As for `O=C(NCc1cc(F)ccc1-n1cncn1)c1nc2n(c(=O)c1O)CCCC21CCC1` [Example 77, N-[[5-fluoro-2-(1H-1,2,4-triazol-1-yl)phenyl]methyl]-7′,8′-dihydro-3′-hydroxy-4′-oxo-spiro[cyclobutane-1,9′(6′H)-[4H]pyrido[1,2-α]pyrimidine]-2′-carboxamide], the concentration for half-maximal inhibition (IC50) was 1 to 10 nM.

Take `O=C(NCc1ccc(F)cc1-n1cncn1)c1nc2n(c(=O)c1O)CCCC21CCC1` [Example 78, N-[[4-fluoro-2-(1H-1,2,4-triazol-1-yl)phenyl]methyl]-7′,8′-dihydro-3′-hydroxy-4′-oxo-spiro[cyclobutane-1,9′(6^1′H)-[4H]pyrido[1,2-α]pyrimidine]-2′-carboxamide]: the IC50 fell in the range of 1 to 10 nM.

`O=C(NCc1ccc(F)cc1N1CCCCS1(=O)=O)c1nc2n(c(=O)c1O)CCCC21CCC1` [Example 79, N-[[4-fluoro-2-(tetrahydro-1,1-dioxido-2H-1,2-thiazin-2-yl)phenyl]methyl]-7′,8′-dihydro-3′-hydroxy-4′-oxo-spiro[cyclobutane-1,9′(6′H)-[4H]pyrido[1,2-α]pyrimidine]-2′-carboxamide]: the IC50 is 1 to 10 nM.

As for `O=C(NCc1ccccc1-n1cncn1)c1nc2n(c(=O)c1O)CCCC21CCC1` [Example 80, N-[[2-(1H-1,2,4-triazol-1-yl)phenyl]methyl]-7′,8′-dihydro-3′-hydroxy-4′-oxo-spiro[cyclobutane-1,9′(6′H)-[4H]pyrido[1,2-α]pyrimidine]-2′-carboxamide], the IC50 was 1 to 10 nM.

Turning to `CS(=O)(=O)c1cc(F)ccc1CNC(=O)c1nc2n(c(=O)c1O)CCCC21CCC1` [Example 81, N-[[4-fluoro-2-(methylsulfonyl)phenyl]methyl]-7′,8′-dihydro-3′-hydroxy-4′-oxo-spiro[cyclobutane-1,9′(6′H)-[4H]pyrido[1,2-α]pyrimidine]-2′-carboxamide], the IC50 was 1 to 10 nM.

On to `CN(C)S(=O)(=O)c1cc(F)ccc1CNC(=O)c1nc2n(c(=O)c1O)CCCC21CCC1` [Example 82, N-[[2-[(dimethylamino)sulfonyl]-4-fluorophenyl]methyl]-7′,8′-dihydro-3′-hydroxy-4′-oxo-spiro[cyclobutane-1,9′(6′H)-[4H]pyrido[1,2-α]pyrimidine]-2′-carboxamide], for which the IC50 was 1 to 10 nM.
